{"source": "patent US9295735B2", "about": "“Liposomal composition for convection-enhanced delivery to the central nervous centre” (MEDGENESIS THERAPEUTIX, INC., priority 2008, dated 2016)", "key": {"[1]": {"test": "Brain tissue pharmacokinetics of Ls-TPT formulations and free topotecan after intracerebral CED (HPLC of total topotecan)", "format": "in vivo, Sprague-Dawley rats", "procedure": "The experiments in this example were performed with research grade material of both liposomal-topotecan (Ls-TPT) and liposomal gadodiamide (Ls-GD). Topotecan (TPT) for free topotecan formulation and for Ls-TPT preparation was obtained from Hisun Pharmaceuticals (Taizhou City, Zhejiang, China). Ls-TPT was provided by Northern Lipids Inc (Burnaby, BC, Canada). In brief, liposomes were composed of distearoylphosphatidylcholine (DSPC), distearoylphosphatidylglycerol (DSPG), and cholesterol at a 7:2:1 molar ratio with 75 to 90 nm target size. Topotecan was remotely loaded (actively encapsulated) into liposomes in response to a transmembrane pH gradient using internal and external buffers consisting of ammonium sulfate 250 mM pH 5.5 and histidine 5 mM/NaCl 145 mM pH 6.0 respectively. Topotecan concentrations of 0.67 and 2.0 mg/mL with a 0.1 and 0.3 (w/w) drug:lipid ratio were respectively targeted assuming a 90-95% drug encapsulation efficiency. A constant total lipid concentration target of 6.7 mg/mL was maintained in both formulations. The manufacturing process is described in details in Example 2.1.2.\nFor the formulation screening component of this example, the animals were divided in 4 groups based on Ls-TPT formulations or free topotecan as outlined in Table 1.\nRats were anesthetized with either isoflurane (5% for induction; 2.5 to 3.0% for maintenance during surgery) inhalation or a combination of ketamine (60 mg/kg) and xylazine (8 mg/kg) via an intraperitoneal injection. […] Craniectomy was performed using a small electric dental drill with 1-mm diameter burr holes, 0.5 mm anterior and 3 mm left and right from the bregma. […] The test article was injected bilaterally at one site into each striatum.\nThe brains were removed, placed on ice and the striata dissected using a dorsal approach and the tissue frozen in liquid nitrogen. The tissue was subsequently homogenized with an equal volume of water (1:1 v/v) and then extracted with methanol and stored at −70° C. until shipment to the Sponsor. Tail vein blood was collected (1.0 mL) for the formulation tissue and plasma pharmacokinetics component of this Example.\nHigh performance liquid chromatography (HPLC) of total topotecan (free and liposome-encapsulated) in brain tissue and in plasma was performed by Northern Lipids Inc. (Burnaby, BC, Canada) using an isocratic reversed phase HPLC/UV method. Method details were as follows. Briefly, the animals (n=3) were sacrificed at 1 and 6 hours, 2, 4 and 7 days. The brains were removed, placed on ice, the striata dissected using a dorsal approach and the tissue frozen in liquid nitrogen. Equal volume of ice cold water (1:1 w/w) was added and the thawed tissue was homogenized (Biospec) mechanically for 2 minutes and frozen."}, "[2]": {"system": "various malignant glioma cells lines", "conditions": "read-out: 50% inhibitory concentration (IC50), cited from earlier work"}, "[3]": {"conditions": "normal rat brain tissue after CED, non-compartmental analysis"}}, "note": "Where two headings read alike, the source gives them in different places."}
{"smiles": "CC[C@@]1(O)C(=O)OCc2c1cc1n(c2=O)Cc2cc3c(CN(C)C)c(O)ccc3nc2-1", "note": "[Formulation F4, topotecan]", "values": [{"measurement": "concentration at 1 h", "setting": "[1]; Sprague-Dawley, brain (striatum), normal rat striatum, CED 20 μL per hemisphere, TPT 0.5 mg/mL, 1 hour, read-out: Topotecan brain tissue concentration, Mean ± STD", "value": "44.3 ± 39.4", "unit": "µM"}, {"measurement": "concentration at 6 h", "setting": "[1]; Sprague-Dawley, brain (striatum), normal rat striatum, CED 20 μL per hemisphere, TPT 0.5 mg/mL, 6 hours, read-out: Topotecan brain tissue concentration, Mean ± STD", "value": "15.6 ± 13.8", "unit": "µM"}, {"measurement": "concentration at 48 h", "setting": "[1]; Sprague-Dawley, brain (striatum), normal rat striatum, CED 20 μL per hemisphere, TPT 0.5 mg/mL, 48 hours, read-out: Topotecan brain tissue concentration, Mean ± STD", "value": 0, "unit": "nM"}, {"measurement": "concentration at 96 h", "setting": "[1]; Sprague-Dawley, brain (striatum), normal rat striatum, CED 20 μL per hemisphere, TPT 0.5 mg/mL, 96 hours, read-out: Topotecan brain tissue concentration, Mean ± STD", "value": 0, "unit": "nM"}, {"measurement": "concentration at 168 h", "setting": "[1]; Sprague-Dawley, brain (striatum), normal rat striatum, CED 20 μL per hemisphere, TPT 0.5 mg/mL, 168 hours, read-out: Topotecan brain tissue concentration, Mean ± STD", "value": 0, "unit": "nM"}, {"measurement": "AUC(0-last)", "setting": "[1]; [3]", "value": 5.5, "unit": "µg·days/g"}, {"measurement": "t1/2", "setting": "[1]; [3]", "value": "much shorter"}, {"measurement": "Topotecan brain tissue concentration, Mean ± STD", "setting": "[1]; normal rat striatum, CED 20 μL per hemisphere, TPT 0.5 mg/mL, 1 hour", "value": "0.0203 ± 0.0181 mg/g of brain tissue"}, {"measurement": "Topotecan brain tissue concentration, Mean ± STD", "setting": "[1]; normal rat striatum, CED 20 μL per hemisphere, TPT 0.5 mg/mL, 6 hours", "value": "0.0071 ± 0.0063 mg/g of brain tissue"}, {"measurement": "Topotecan brain tissue concentration, Mean ± STD", "setting": "[1]; normal rat striatum, CED 20 μL per hemisphere, TPT 0.5 mg/mL, 48 hours", "value": "0 mg/g of brain tissue"}, {"measurement": "Topotecan brain tissue concentration, Mean ± STD", "setting": "[1]; normal rat striatum, CED 20 μL per hemisphere, TPT 0.5 mg/mL, 96 hours", "value": "0 mg/g of brain tissue"}, {"measurement": "Topotecan brain tissue concentration, Mean ± STD", "setting": "[1]; normal rat striatum, CED 20 μL per hemisphere, TPT 0.5 mg/mL, 168 hours", "value": "0 mg/g of brain tissue"}, {"measurement": "IC50", "setting": "[2]; exposure over 1 hour", "value": 2400, "unit": "nM"}, {"measurement": "IC50", "setting": "[2]; exposure over 24 hours", "value": 38, "unit": "nM"}, {"measurement": "IC50", "setting": "[2]; exposure over 72 hours", "value": 280, "unit": "nM"}, {"measurement": "IC50", "setting": "[2]; exposure over 120 hours", "value": "≥ 20", "unit": "nM"}]}
